Experimental data reported in US20260356957A1, “METHODS FOR TREATMENT OF NON-SMALL CELL LUNG CANCER (NSCLC)” (Janssen Biotech, Inc., priority 2023, published 2026).
Marks after values point to notes of the source that are not given here.

Test: MARIPOSA Phase 3, adverse events
Type: in vivo, human
Text: • 1. […] Incidence and Severity of Adverse Events (AEs) [Time Frame: Up to approximately 60 months]. Incidence and severity of treatment emergent adverse events (TEAEs) will be reported. Any adverse event occurring at or after the initial administration of study treatment through the day of last dose plus 30 days, or until the start of subsequent anticancer therapy (if earlier), is considered to be treatment emergent. • 8. Number of Participants with Clinical Laboratory Abnormalities [Time Frame: Up to approximately 60 months]. Number of participants with clinical laboratory abnormalities (serum chemistry, hematology, blood coagulation, and urine samples) will be reported. • 9. Number of Participants with Vital Signs Abnormalities [Time Frame: Up to approximately 60 months]. Number of participants with vital signs abnormalities (temperature, heart rate, respiratory rate, oxygen saturation, blood pressure) will be reported. • 10. Number of Participants with Physical Examination Abnormalities [Time Frame: Up to approximately 60 months]. Number of participants with physical examination abnormalities will be reported. • 11. […] The NSCLC-SAQ contains 7 items that assess cough, pain, dyspnea, fatigue, and poor appetite over a 7-day recall period. Each multi-item scale and individual item will be summarized using count and percent by visit. • 15. […] EORTC-QLQ-C30 is a core 30-item questionnaire for evaluating the health-related quality of life (HRQOL) of participants participating in cancer clinical studies. • 16.

[1] = AE of interest, grouped preferred terms
[2] = Grade 5 AE, deemed treatment-related
[3] = TEAE leading to discontinuations of any study agent
[4] = TEAE leading to dose reductions of any study agent

C=CC(=O)Nc1cc(Nc2nccc(-c3cn(C)c4ccccc34)n2)c(OC)cc1N(C)CCN(C)C [Osimertinib]
Venous thromboembolism, No. of days to first onset, median (range) (AE of interest): 194 (10-675) days | Any venous thromboembolism event, No. of patients (%) [1]: 39 (9) no. (%) | Rash, Duration of event, median no. of days (range) [1]: 51 (1-625) days | Rash, No. of days to first onset, median (range) [1]: 29 (1-799) days | Rash, No. of events, any grade [1]: 238 | Rash, No. of patients (%) [1]: 210 (49) no. (%) | Anemia (AE, All grades): 91 (21) no. (%) | Asthenia (AE, All grades): 46 (11) no. (%) | COVID-19 (AE, All grades): 103 (24) no. (%) | Constipation (AE, All grades): 55 (13) no. (%) | Cough (AE, All grades): 88 (21) no. (%) | Decreased appetite (AE, All grades): 76 (18) no. (%) | Dermatitis acneiform (AE, All grades): 55 (13) no. (%) | Diarrhea (AE, All grades): 190 (44) no. (%) | Dry skin (AE, All grades): 60 (14) no. (%) | Dyspnea (AE, All grades): 68 (16) no. (%) | Fatigue (AE, All grades): 42 (10) no. (%) | Hypoalbuminemia (AE, All grades): 26 (6) no. (%) | Hypocalcemia (AE, All grades): 35 (8) no. (%) | Increased alanine aminotransferase (AE, All grades): 57 (13) no. (%) | Increased aspartate aminotransferase (AE, All grades): 58 (14) no. (%) | Infusion-related reaction (AE, All grades): 0 no. (%) | Leukopenia (AE, All grades): 66 (15) no. (%) | Muscle spasms (AE, All grades): 32 (7) no. (%) | Nausea (AE, All grades): 58 (14) no. (%) | Pain in extremity (AE, All grades): 22 (5) no. (%) | Paronychia (AE, All grades): 121 (28) no. (%) | Peripheral edema (AE, All grades): 24 (6) no. (%) | Pruritus (AE, All grades): 73 (17) no. (%) | Pulmonary embolism (AE, All grades): 20 (5) no. (%) | Rash (AE, All grades): 131 (31) no. (%) | Stomatitis (AE, All grades): 90 (21) no. (%) | Thrombocytopenia (AE, All grades): 84 (20) no. (%) | Anemia (AE, Grade ≥3): 7 (2) no. (%) | Asthenia (AE, Grade ≥3): 4 (1) no. (%) | COVID-19 (AE, Grade ≥3): 9 (2) no. (%) | Constipation (AE, Grade ≥3): 0 no. (%) | Cough (AE, Grade ≥3): 0 no. (%) | Decreased appetite (AE, Grade ≥3): 6 (1) no. (%) | Dermatitis acneiform (AE, Grade ≥3): 0 no. (%) | Diarrhea (AE, Grade ≥3): 3 (1) no. (%) | Dry skin (AE, Grade ≥3): 1 (0.2) no. (%) | Dyspnea (AE, Grade ≥3): 17 (4) no. (%) | Fatigue (AE, Grade ≥3): 4 (1) no. (%) | Hypoalbuminemia (AE, Grade ≥3): 0 no. (%) | Hypocalcemia (AE, Grade ≥3): 0 no. (%) | Increased alanine aminotransferase (AE, Grade ≥3): 8 (2) no. (%) | Increased aspartate aminotransferase (AE, Grade ≥3): 5 (1) no. (%) | Infusion-related reaction (AE, Grade ≥3): 0 no. (%) | Leukopenia (AE, Grade ≥3): 0 no. (%) | Muscle spasms (AE, Grade ≥3): 0 no. (%) | Nausea (AE, Grade ≥3): 1 (0.2) no. (%) | Pain in extremity (AE, Grade ≥3): 0 no. (%) | Paronychia (AE, Grade ≥3): 2 (0.5) no. (%) | Peripheral edema (AE, Grade ≥3): 0 no. (%) | Pruritus (AE, Grade ≥3): 1 (0.2) no. (%) | Pulmonary embolism (AE, Grade ≥3): 10 (2) no. (%) | Rash (AE, Grade ≥3): 3 (1) no. (%) | Stomatitis (AE, Grade ≥3): 1 (0.2) no. (%) | Thrombocytopenia (AE, Grade ≥3): 5 (1) no. (%) | Acinetobacter sepsis (Grade 5 AE): 0 no. (%) | Acute respiratory distress syndrome (Grade 5 AE): 0 no. (%) | Arteriosclerosis coronary artery (Grade 5 AE): 0 no. (%) | COVID-19 (Grade 5 AE): 3 (1) no. (%) | COVID-19 pneumonia (Grade 5 AE): 0 no. (%) | Cardiac failure (Grade 5 AE): 1 (0.2) no. (%) | Cardiopulmonary failure (Grade 5 AE): 0 no. (%) | Cerebral hemorrhage (Grade 5 AE): 1 (0.2) no. (%) | Cerebral infarction (Grade 5 AE): 0 no. (%) | Cerebrovascular accident (Grade 5 AE): 1 (0.2) no. (%) | Circulatory collapse (Grade 5 AE): 0 no. (%) | Death (Grade 5 AE): 2 (0.5) no. (%) | Dyspnea (Grade 5 AE): 3 (1) no. (%) | Hemoptysis (Grade 5 AE): 1 (0.2) no. (%) | Ischemic cerebral infarction (Grade 5 AE): 0 no. (%) | Ketoacidosis (Grade 5 AE): 1 (0.2) no. (%) | Lower respiratory tract infection (Grade 5 AE): 1 (0.2) no. (%) | Metabolic acidosis (Grade 5 AE): 1 (0.2) no. (%) | Myocardial infarction (Grade 5 AE): 0 no. (%) | Myocardial rupture (Grade 5 AE): 0 no. (%) | Pericardial effusion (Grade 5 AE): 1 (0.2) no. (%) | Pleural effusion (Grade 5 AE): 1 (0.2) no. (%) | Pneumonia (Grade 5 AE): 4 (1) no. (%) | Pneumonia aspiration (Grade 5 AE): 1 (0.2) no. (%) | Pulmonary embolism (Grade 5 AE): 2 (0.5) no. (%) | Respiratory failure (Grade 5 AE): 2 (0.5) no. (%) | Respiratory tract infection (Grade 5 AE): 1 (0.2) no. (%) | Sepsis (Grade 5 AE): 1 (0.2) no. (%) | Septic shock (Grade 5 AE): 1 (0.2) no. (%) | Sudden death (Grade 5 AE): 1 (0.2) no. (%) | Urosepsis (Grade 5 AE): 0 no. (%) | Coronary artery disease [2]: 0 no. (%) | Interstitial lung disease [2]: 2 (0.5)§ no. (%) | Pneumonitis [2]: 0 no. (%) | Asthenia [3]: 1 (0.2) no. (%) | Dermatitis acneiform [3]: 0 no. (%) | Hypoalbuminemia [3]: 0 no. (%) | Infusion related reaction [3]: 0 no. (%) | Interstitial lung disease [3]: 4 (1) no. (%) | Paronychia [3]: 0 no. (%) | Peripheral edema [3]: 0 no. (%) | Pneumonia [3]: 3 (1) no. (%) | Pneumonitis [3]: 7 (2) no. (%) | Pulmonary embolism [3]: 2 (0.5) no. (%) | Rash [3]: 0 no. (%) | Dermatitis acneiform [4]: 0 no. (%) | Folliculitis [4]: 0 no. (%) | Hypoalbuminemia [4]: 0 no. (%) | Increased alanine aminotransferase [4]: 0 no. (%) | Increased aspartate aminotransferase [4]: 0 no. (%) | Mucosal inflammation [4]: 0 no. (%) | Neuropathy peripheral [4]: 0 no. (%) | Paresthesia [4]: 0 no. (%) | Paronychia [4]: 1 (0.2) no. (%) | Peripheral edema [4]: 0 no. (%) | Peripheral sensory neuropathy [4]: 0 no. (%) | Rash [4]: 2 (0.5) no. (%) | Rash maculo-papular [4]: 0 no. (%) | Rash pustular [4]: 0 no. (%)
